Experimental data reported in ChEMBL document CHEMBL3217413, “Chemical space as a source for new drugs” (Medchemcomm, 2010).
The source made the active and inactive calls. The rule behind the calls is not given here.

Experiments:
[1] = test system: Human immunodeficiency virus; assay: Antiviral activity against HIV; assay type: functional, organism-based; settings: Human immunodeficiency virus 1
[2] = molecular target: Glutamate [NMDA] receptor; assay: (§1) Inhibition of NMDA receptor glycine binding site (unknown origin); parameters: species or system Homo sapiens
Nucleic Acid = assay: Inhibition of TAT/TAR RNA interaction in HIV1; assay type: nucleic-acid assay, Human immunodeficiency virus 1
[3] = molecular target: Adrenergic receptor alpha-1 (Homo sapiens) (UniProt P35348+P25100+P35368); assay: Inhibition of alpha1 adrenergic receptor (unknown origin) at 10 uM by radioligand displacement assay; assay type: protein assay
[4] = Inhibition of estrogen receptor (unknown origin); parameters: species or system Homo sapiens
[5] = molecular target: Glutamate [NMDA] receptor (Homo sapiens) (UniProt Q05586+Q12879+Q13224+O15399+O60391+Q14957+Q8TCU5); assay: as §1

Compound	IC50 [2] [µM]	also measured
CC(C)n1c(O)nnc1Sc1cccc(C(F)(F)F)c1	–	IC50 [1]: 80 µM
C[C@@H](NCCN)C(=O)O	112	–
CCOc1cccc(CN(c2cccc(F)c2)C2CCNCC2)c1	–	IC50 (Nucleic Acid): 500 µM
NCCCC(=O)NCC(=O)O	61	–
OCc1ccccc1C1CCCNC1 (stereo not given)	–	inhibition [3]: > 50%
CCNCCC(=O)NCCC(=O)O	60	–
NC[C@@H]1NC(=O)CNC1=O	370	–
Oc1ccc(-c2cc3ccc(O)cc3s2)cc1 [RALOXIFENE CORE]	–	IC50 [4]: 0.34 µM
NC[C@H]1CNC(=O)C(=O)N1	–	inhibition [5]: inactive
C[C@H](N)CC(=O)NCC(=O)O	28	–
